Measurements as given in patent US6537783B1, “Prefunctionalized nucleotide and process for amplifying a sequence using a prefunctionalized nucleotide” (Bio Merieux, priority 1996, dated 2003).

What was measured:
[1] = test system: Mycobacterium tuberculosis 16S RNA; assay: Impact of incorporation of prefunctionalized nucleotides on TMA sensitivity (ELOSA, electrophoresis, Northern blotting); assay type: biochemical; conditions: for sensitivity of the TMA reaction: 10,000 to 10 target copies, ratios 100% to 0%, at a determinable concentration of prefunctionalized nucleotide
Text: In the abovementioned FIGS. 4 and 5, the number of copies of the target per reaction are given on the x axis and the number of amplicons obtained per microliter of reaction (final reaction volume=100 microliters) are given on the y axis. Specific symbols, for example ▪, □, ▴, ◯, ●, and a percentage, are assigned to the curves in FIGS. 4 and 5. This percentage corresponds to the percentage of the prefunctionalized nucleotide(s) as compared with the natural nucleotides in the TMA amplification reaction. FIGS. 4 and 5 show, respectively, the results of the semiquantification, by means of the ELOSA technique (described in Patent Application PCT WO 92/19812), of the number of amplicons produced from a target range of Mycobacterium tuberculosis 16S RNA in the presence of different ratios of 27a and 27b nucleotides as compared with their respective natural nucleotides.
In order to study the sensitivity of TMA which includes incorporation of prefunctionalized nucleotides, the TMA was performed using decreasing quantities of the target (Mycobacterium tuberculosis 16S RNA, described in Example 22) (10,000, 1000, 100, 10 and 0 copies) in the presence of different ratios between the prefunctionalized nucleotide and its natural analog (100%, 70%, 50%, 30%, 10% and 0%). The same prefunctionalized nucleotides are tested, i.e. 27a (CTP-(N4)-C6O2—NH2) and 27b (CTP-(N4)-C4—NH2).
The reaction products are studied, inter alia, by the method described in Example 22.
The reaction products are also analyzed in a semi-quantitative manner by means of ELOSA (PCT WO 92/19812) and comparison of the intensity of the signals with those of standard ranges.
The reactions which are performed in the presence of (a) prefunctionalized nucleotide(s) are analyzed by electrophoresis and staining, Northern blotting and ELOSA.

[2] = test system: Mycobacterium tuberculosis 16S RNA; assay: Incorporation yield of the nucleotide in the TMA amplification products (HPLC of digested amplicons; fluorescence for fluorescein-UTP); assay type: biochemical; conditions: 10^6 copies target, total 4 mM
Method: The incorporation of the prefunctionalized nucleotides 27a, 27b and 32, and, by way of comparison, Boerhinger's labeled nucleotide ref. 1 427 857, into the products of the TMA amplification reaction is tested using Gen-Probe amplified™ MTD2 (amplified Mycobacterium tuberculosis direct test) kits. This reaction amplifies a 136-base fragment of the mycobacterial 16S RNA. It uses four enzymic activities (DNA-dependent RNA polymerase, DNA-dependent DNA polymerase, RNA-dependent DNA polymerase and ribonuclease H) and two enzymes, T7 RNA polymerase and AMV reverse transcriptase. By means of recurrent reactions involving steps of transcription, reverse transcription and digestion of the RNA contained in the DNA:RNA double strands, which steps resemble an RNA virus replication cycle, this reaction enables a nucleic acid sequence which is recognized by two primers (a simple primer and a primer containing the T7 RNA polymerase promoter) to be amplified specifically. The amplification factor is very substantial ([…]) and the sensitivity is very good (from 1 to 10 copies). 90% of the resulting products consist of single-stranded RNAs and 10% consist of double-stranded DNAs.
Amplification reactions are carried out using 10^6 copies of Mycobacterium tuberculosis 16S RNA. This target RNA is previously obtained and quantified by means of the following method: the 16S RNA gene is cloned into a plasmid under the control of a promoter. The 16S RNA is then obtained by in vitro transcription. This RNA is purified by extraction with phenol/chloroform and filtration through microcon 30™ (Amicon). It is assayed by its absorption at 260 nm.
The standard TMA reactions contain 4 mM of each of the natural rNTPs (ATP, CTP, GTP and UTP). For the purpose of incorporating the prefunctionalized nucleotides into the amplification products, the reaction is performed while including one of these modified nucleotides in the reaction buffer. The reaction is studied in the presence of different ratios between the concentrations of the modified nucleotide and the natural nucleotide, while at the same time ensuring that the total concentration of each nucleotide of the same series, whether modified or natural, is 4 mM. The ratios studied are 0%, 10%, 30%, 50% and 70% (except in the case of the fluorescein-UTP, which it was not possible to test at 70%). A negative control is carried out, with this negative control consisting of a reaction which comprises all the reagents, including the highest ratio of modified nucleotides employed (70 or 50%), apart from the enzymes (which are replaced by the buffer used for redissolving the lyophilized enzymes).
The ratio between the incorporated prefunctionalized nucleotide and the analogous natural nucleotide is determined in order to assess the prefunctionalization of the amplicons obtained in the presence of the prefunctionalized nucleotides 27a (CTP-(N4)-C6O2—NH2) and 27b (CTP-(N4)-C4—NH2) and, by way of comparison, in the presence of the labeled nucleotide fluorescein-12-UTP (Boerhinger, ref. 1 427 857).
The amplification products obtained on carrying out Example 22 are separated from the nucleotides which are in excess in the reaction by means of filtration through Microcon 30™ (from Amicon) and dissolved in 50 μl of water. In the case of the amplification in the presence of fluorescein-12-UTP, the purification is carried out on sephadex G50 (the fluorescein is absorbed on Microcon).
The absorption of the amplification products at 260 nm is then determined (the control without enzyme should have a very low concentration).
In the case of the amplification reactions which include the prefunctionalized nucleotides (and their controls), a step of digesting the nucleic acids down to the nucleoside stage is then carried out:
5 10^14 amplification product copies (approximately 35 μg) are diluted in a final volume of 86 μl of water (in the case of the control without enzyme, a volume is used which is equal to the largest sample […] volume). […]

[3] = [Prefunctionalized nucl.]/[natural nucl.] in reaction 30%
[4] = [Prefunctionalized nucl.]/[natural nucl.] in reaction 50%
[5] = [Prefunctionalized nucl.]/[natural nucl.] in reaction 70%
[6] = [Prefunctionalized nucl.]/[natural nucl.] in reaction 10%

Substance: CTP-(N4)-C4—NH2 [nucleotide 27b]
- sensitivity of the TMA reaction [1]: not significantly affected
- ability to replace the natural nucleotide in TMA ([1]; FIG. 5, ELOSA): able to replace the natural nucleotide
- incorporation yield: incorporated modified nucleotide / natural nucleotide in TMA amplification products [2, 3]: 1/48
- incorporation yield: incorporated modified nucleotide / natural nucleotide in TMA amplification products [2, 4]: 1/15
- incorporation yield: incorporated modified nucleotide / natural nucleotide in TMA amplification products [2, 5]: 1/6

Substance: CTP-(N4)-C6O2—NH2 [nucleotide 27a]
- sensitivity of the TMA reaction [1]: not significantly affected
- incorporation yield: incorporated modified nucleotide / natural nucleotide in TMA amplification products [2, 6]: 1/33
- incorporation yield: incorporated modified nucleotide / natural nucleotide in TMA amplification products [2, 3]: 1/9
- incorporation yield: incorporated modified nucleotide / natural nucleotide in TMA amplification products [2, 4]: 1/5
- incorporation yield: incorporated modified nucleotide / natural nucleotide in TMA amplification products [2, 5]: 1/3

Substance: fluorescein-12-UTP [reference compound]
- incorporation yield: incorporated modified nucleotide / natural nucleotide in TMA amplification products [2, 6]: 1/200
- incorporation yield: incorporated modified nucleotide / natural nucleotide in TMA amplification products [2, 3]: 1/45
- incorporation yield: incorporated modified nucleotide / natural nucleotide in TMA amplification products [2, 4]: 1/30
